Experimental data taken from ChEMBL document CHEMBL1201862, “PubChem BioAssay data set” (2004).
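Results reflect a 48-hour exposure of cells in 96-well plates to compound at five concentrations. The concentration for 50% growth inhibition is given as GI50.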 Calls of active or inactive are those of the source. No stated cut-off is given here; in the data, active = GI50 up to about 1.1 µM and inactive = higher.

What was measured:
Test in all cases: inhibition of tumour cell growth, NCI panel, 48 h
OVCAR-3 = test system: OVCAR-3
SNB-75 = test system: SNB-75
A549 = test system: A549
MOLT-4 = test system: MOLT-4
SF-539 = test system: SF-539
HCT-116 = test system: HCT-116
HT-29 = test system: HT-29
SK-MEL-28 = test system: SK-MEL-28
SW-620 = test system: SW-620
EKVX = test system: EKVX
COLO 205 = test system: COLO 205
RPMI-8226 = test system: RPMI-8226
NCI-H226 = test system: NCI-H226
NCI-H460 = test system: NCI-H460
UACC-62 = test system: UACC-62
KM12 = test system: KM12
NCI-H23 = test system: NCI-H23
SR = test system: SR
SK-MEL-5 = test system: SK-MEL-5

Measured: GI50

CC(=O)c1cccc(N2COC(C)(C)c3nc4ccccc4n3C2)c1
inactive: OVCAR-3 > 100 µM | SNB-75 > 100 µM | A549 > 100 µM | MOLT-4 > 100 µM | SF-539 > 100 µM | HCT-116 > 100 µM | HT-29 > 100 µM | SK-MEL-28 > 100 µM | SW-620 > 100 µM | EKVX > 100 µM | COLO 205 > 100 µM | RPMI-8226 > 100 µM | NCI-H226 > 100 µM | NCI-H460 > 100 µM | UACC-62 > 100 µM | KM12 > 100 µM | NCI-H23 > 100 µM | SR > 100 µM

O=C(Cc1ccccc1)NN1C(=O)C(Cl)C1c1ccccc1Cl (centres undefined)
inactive: OVCAR-3 > 62.7 µM | SNB-75 51.3 µM | A549 > 100 µM | MOLT-4 26.2 µM | SF-539 > 100 µM | HCT-116 59.4 µM | HT-29 > 94.2 µM | SK-MEL-28 > 100 µM | SW-620 34.4 µM | EKVX > 100 µM | COLO 205 > 100 µM | RPMI-8226 19.5 µM | NCI-H226 > 100 µM | NCI-H460 76 µM | UACC-62 68.5 µM | KM12 > 79.3 µM | NCI-H23 64.1 µM | SR 23.2 µM | SK-MEL-5 > 72.6 µM

CC(=O)Nc1cc2c(s1)CCC1CC(=O)NN=C21 (centres undefined)
inactive: OVCAR-3 > 100 µM | SNB-75 26.5 µM | A549 > 100 µM | MOLT-4 > 100 µM | SF-539 > 100 µM | HCT-116 > 100 µM | HT-29 > 100 µM | SK-MEL-28 > 100 µM | SW-620 > 100 µM | EKVX > 100 µM | COLO 205 > 100 µM | RPMI-8226 > 100 µM | NCI-H226 > 100 µM | NCI-H460 > 100 µM | UACC-62 > 100 µM | KM12 > 100 µM | NCI-H23 > 100 µM | SR > 100 µM | SK-MEL-5 > 100 µM

N#CC(C#N)C(c1ccccc1)c1ccccc1
inactive: OVCAR-3 > 100 µM | A549 > 100 µM | MOLT-4 82 µM | SF-539 > 100 µM | HCT-116 > 100 µM | SK-MEL-28 > 100 µM | SW-620 > 100 µM | COLO 205 > 100 µM | RPMI-8226 > 100 µM | NCI-H226 > 100 µM | NCI-H460 > 100 µM | UACC-62 > 100 µM | KM12 > 100 µM | SR > 100 µM | SK-MEL-5 > 100 µM

Cc1cc(NCCCCCCNc2cc(C)nc3ccc(Cl)cc23)c2cc(Cl)ccc2n1
inactive: OVCAR-3 18 µM | SNB-75 17.4 µM | A549 20.8 µM | MOLT-4 27.7 µM | SF-539 15.9 µM | HCT-116 14.7 µM | HT-29 15.2 µM | SK-MEL-28 17.2 µM | EKVX 15.8 µM | COLO 205 18.3 µM | RPMI-8226 47.4 µM | NCI-H226 > 100 µM | NCI-H460 14.8 µM | UACC-62 19.5 µM | KM12 17.2 µM | NCI-H23 15 µM | SR 2.09 µM | SK-MEL-5 18.3 µM

CN1C(=O)C2C(=O)N(Cc3ccccc3)CC(=O)N2c2cccnc21 (centres undefined)
inactive: OVCAR-3 > 100 µM | SNB-75 > 100 µM | A549 > 100 µM | MOLT-4 > 100 µM | SF-539 > 100 µM | HCT-116 > 100 µM | HT-29 > 100 µM | EKVX > 100 µM | COLO 205 > 100 µM | RPMI-8226 > 100 µM | NCI-H226 > 100 µM | NCI-H460 > 100 µM | UACC-62 > 100 µM | KM12 > 100 µM | NCI-H23 > 100 µM | SR > 100 µM | SK-MEL-5 > 100 µM

CC1(C)CCC[C@@]2(C)C1CCC1(C)C(CCc3ccoc3)/C(=C/OS(=O)(=O)O)CCC12 (some centres undefined)
inactive: OVCAR-3 > 100 µM | SNB-75 > 100 µM | A549 > 100 µM | MOLT-4 23.6 µM | SF-539 > 100 µM | HCT-116 16.5 µM | HT-29 40.9 µM | SK-MEL-28 58.7 µM | SW-620 54.3 µM | EKVX > 100 µM | COLO 205 54.6 µM | RPMI-8226 33.7 µM | NCI-H226 54.8 µM | NCI-H460 > 100 µM | UACC-62 > 100 µM | KM12 > 100 µM | NCI-H23 50.4 µM | SR 23.1 µM | SK-MEL-5 > 100 µM

CCN(CC)C(=O)COc1ccc(Br)cc1Br
inactive: OVCAR-3 > 100 µM | SNB-75 83.6 µM | A549 > 100 µM | MOLT-4 > 100 µM | SF-539 > 100 µM | HCT-116 > 100 µM | HT-29 > 100 µM | SK-MEL-28 > 100 µM | SW-620 > 100 µM | EKVX 7.91 µM | COLO 205 > 100 µM | RPMI-8226 > 100 µM | NCI-H226 > 100 µM | NCI-H460 > 100 µM | UACC-62 38.8 µM | KM12 > 100 µM | NCI-H23 82.6 µM | SR > 100 µM | SK-MEL-5 > 100 µM

CCCCN(CCCC)CC(C(C)=O)C(c1ccccc1)c1c(O)c2ccccc2oc1=O (centres undefined)
inactive: OVCAR-3 > 100 µM | SNB-75 19.3 µM | A549 > 100 µM | MOLT-4 > 100 µM | SF-539 > 100 µM | HCT-116 > 100 µM | HT-29 > 100 µM | SK-MEL-28 > 100 µM | SW-620 > 100 µM | EKVX > 100 µM | COLO 205 > 100 µM | RPMI-8226 > 100 µM | NCI-H226 > 100 µM | NCI-H460 > 100 µM | UACC-62 > 100 µM | KM12 > 100 µM | NCI-H23 > 100 µM | SR > 100 µM | SK-MEL-5 > 100 µM

COc1cc(/C=C(\C#N)C(=O)c2ccccc2)ccc1OCc1ccccc1
inactive: OVCAR-3 > 100 µM | A549 > 100 µM | MOLT-4 > 100 µM | SF-539 > 100 µM | HCT-116 > 100 µM | SK-MEL-28 > 100 µM | SW-620 > 100 µM | EKVX > 100 µM | COLO 205 > 100 µM | RPMI-8226 > 100 µM | NCI-H226 > 100 µM | UACC-62 > 100 µM | KM12 > 100 µM | NCI-H23 > 100 µM | SR > 100 µM | SK-MEL-5 > 100 µM

N#CCc1ccc(C(C#N)/C(CCCC(=O)Nc2cccc([N+](=O)[O-])c2)=N/NC(N)=S)cc1 (centres undefined)
inactive: OVCAR-3 75.3 µM | SNB-75 > 100 µM | A549 > 100 µM | MOLT-4 70.3 µM | SF-539 > 100 µM | HCT-116 > 100 µM | HT-29 > 100 µM | SK-MEL-28 > 100 µM | SW-620 > 100 µM | EKVX 36.6 µM | COLO 205 > 100 µM | RPMI-8226 > 100 µM | NCI-H226 > 100 µM | NCI-H460 > 100 µM | UACC-62 44.1 µM | KM12 > 100 µM | NCI-H23 > 100 µM | SR > 100 µM | SK-MEL-5 > 100 µM

Cc1ccc(S(=O)(=O)SCc2ccccc2CSS(=O)(=O)c2ccc(C)cc2)cc1
inactive: OVCAR-3 20.5 µM | SNB-75 57.7 µM | A549 > 100 µM | MOLT-4 16 µM | SF-539 19.5 µM | HCT-116 21.3 µM | HT-29 22.7 µM | SK-MEL-28 19.1 µM | SW-620 17.1 µM | EKVX 44.4 µM | COLO 205 17 µM | RPMI-8226 17.5 µM | NCI-H226 > 100 µM | NCI-H460 42.2 µM | UACC-62 15.8 µM | KM12 59.7 µM | NCI-H23 18.8 µM | SR 16.1 µM | SK-MEL-5 59.4 µM

CCOC(=O)C1=NC(c2ccccc2)(c2ccccc2)OC1=C(Cl)Cl
inactive: OVCAR-3 42.2 µM | SNB-75 > 100 µM | A549 54.6 µM | MOLT-4 36 µM | SF-539 > 100 µM | HCT-116 29.2 µM | HT-29 32.4 µM | SK-MEL-28 > 100 µM | SW-620 82.4 µM | EKVX 35.5 µM | COLO 205 > 100 µM | RPMI-8226 19.1 µM | NCI-H226 > 100 µM | NCI-H460 70.6 µM | UACC-62 99.8 µM | KM12 94 µM | NCI-H23 > 100 µM | SR 19.8 µM | SK-MEL-5 39.5 µM

CCCc1c(C(=O)OCC)[nH]c(C(=O)CCC(=O)c2[nH]c(C(=O)OCC)c(CCC)c2C(=O)OCC)c1C(=O)OCC
inactive: OVCAR-3 68.5 µM | SNB-75 19.1 µM | A549 > 100 µM | MOLT-4 > 100 µM | SF-539 > 100 µM | HCT-116 > 100 µM | HT-29 > 100 µM | SK-MEL-28 > 100 µM | SW-620 > 100 µM | EKVX > 100 µM | COLO 205 > 100 µM | RPMI-8226 > 100 µM | NCI-H226 > 100 µM | NCI-H460 > 100 µM | UACC-62 > 100 µM | KM12 > 100 µM | NCI-H23 > 100 µM | SR > 100 µM | SK-MEL-5 > 100 µM

O=C(/N=c1/[nH]/c(=N/C(=O)c2ccccc2)ss1)c1ccccc1
inactive: OVCAR-3 13.1 µM | SNB-75 38.6 µM | A549 11.4 µM | MOLT-4 24.7 µM | SF-539 12.9 µM | HCT-116 28.8 µM | HT-29 16.6 µM | SK-MEL-28 23.9 µM | SW-620 25.5 µM | EKVX 25.4 µM | COLO 205 22.9 µM | RPMI-8226 6.35 µM | NCI-H226 38.8 µM | NCI-H460 16.6 µM | UACC-62 > 10 µM | KM12 27.7 µM | NCI-H23 19.3 µM | SR 24 µM | SK-MEL-5 5.11 µM
